Measurements from ChEMBL document CHEMBL1127505, “Structure-activity relationships of new taxoids derived from 14 beta-hydroxy-10-deacetylbaccatin III” (J Med Chem, 1994).

What was measured:
Assay type in all cases: functional, cell-based
A121 = experiment: In vitro cytotoxicity against human ovarian carcinoma […]
HT-29 = experiment: In vitro cytotoxicity against human colon carcinoma HT-29
MCF7 [1] = experiment: In vitro cytotoxicity against human mammary carcinoma cells 180 fold resistant to adriamycin MCF7-R
A549 = experiment: In vitro cytotoxicity against human non-small cell lung carcinoma A549
MCF7 [2] = experiment: In vitro cytotoxicity against human mammary carcinoma MCF-7

Row | Compound | IC50 (A121) [nM] | IC50 (HT-29) [nM] | IC50 (MCF7 [1]) [nM] | IC50 (A549) [nM] | IC50 (MCF7 [2]) [nM]
1 | CC(=O)O[C@@]12CO[C@@H]1C[C@H](O)[C@@]1(C)C(=O)[C@H](O)C3=C(C)[C@@H](OC(=O)[C@H](O)[C@@H](NC(=O)c4ccccc4)c4ccccc4)[C@@H]4OC(=O)O[C@]4([C@@H](OC(=O)c4ccccc4)C12)C3(C)C (some centres not stated) | 105 | 24 | > 1000 | 33 | 11
2 | CC(=O)O[C@@]12CO[C@@H]1C[C@H](O)[C@@]1(C)C(=O)[C@H](O)C3=C(C)[C@@H](O)[C@H](OC(=O)[C@@H](O)C(NC(=O)OC(C)(C)C)c4ccccc4)[C@@](O)([C@@H](OC(=O)c4ccccc4)C12)C3(C)C (some centres not stated) | 80 | 50 | > 1000 | 31 | 26
3 | CC(=O)O[C@@]12CO[C@@H]1C[C@H](O)[C@@]1(C)C(=O)[C@H](O)C3=C(C)[C@@H](O)[C@H](OC(=O)[C@@H](O)C(NC(=O)c4ccccc4)c4ccccc4)[C@@](O)([C@@H](OC(=O)c4ccccc4)C12)C3(C)C (some centres not stated) | 1040 | 248 | > 1000 | 512 | 269
4 | CC(=O)O[C@@]12CO[C@@H]1C[C@H](O)[C@@]1(C)C(=O)[C@H](O)C3=C(C)[C@@H](OC(=O)[C@H](O)[C@@H](NC(=O)OC(C)(C)C)c4ccccc4)[C@@H]4OC(=O)O[C@]4([C@@H](OC(=O)c4ccccc4)C12)C3(C)C (some centres not stated) | 6.2 | 1.8 | 543 | 2.1 | 1.8
5 | CC(=O)O[C@H]1C(=O)[C@@]2(C)[C@H]([C@H](OC(=O)c3ccccc3)[C@]3(O)C[C@H](OC(=O)[C@H](O)[C@@H](NC(=O)c4ccccc4)c4ccccc4)C(C)=C1C3(C)C)[C@]1(OC(C)=O)CO[C@@H]1C[C@@H]2O [PACLITAXEL] | 6.1 | 3.2 | – | – | –
